From patent publication US20240368185A1, “MACROCYCLIC AZOLOPYRIDINES” (Fulcrum Therapeutics, Inc., priority 2021, published 2024)
In brackets after ≈: the same amount, converted by molar mass.

Assays:
[1] = Dynamic vapor sorption (DVS) analysis; format: physicochemical; settings: between about 2 to about 92% relative humidity (RH) at 25° C.
Method: Dynamic vapor sorption (DVS) analysis was performed using a DVS Intrinsic 1. The sample (25 mg) was loaded into a sample pan, suspended from a microbalance and exposed to a humidified stream of nitrogen gas. The sample was held for a minimum of 5 min at each level and only progressed to the next humidity level if there was <0.002% change in weight between measurements (interval: 60 seconds) or 240 min had elapsed.

[2] = Wet-milling study (ball mill, 30 s, 1 vol. water); format: physicochemical; settings: milled with 1 vol. water
physchem [3] = settings: organic solvent or mixture, thermodynamic from solid
Method: (§1) An abbreviated polymorph/solvate screen and approximate solubility determination were performed utilizing each class III solvent and several class II solvents as listed under ICH Guidelines Q3C. […] Form P was chosen as the target polymorph for crystallization.

[4] = 24 h
Method: as §1

physchem [5] = settings: 70 °C, organic solvent or mixture, thermodynamic from solid
Method: as §1

physchem [6] = format: physicochemical; settings: organic solvent or mixture, thermodynamic from solid
Method: Crystalline, Form V material of (S)-12-fluoro-4-(2-methylpyridin-3-yl)-7a,8,13,14-tetrahydro-7H-[1,2,4]triazolo[4′,3′:1,6]pyrido[3,2-b]benzofuro[4,3-fg][1,4]oxazonine, free base, was prepared as follows. About 12 mg of Form P material was loaded into a 2 mL vial. […] The solution was stirred overnight and the next day a slurry was observed. The slurry solids were collected and analyzed by XRPD.

[7] = Particle size distribution (PSD); format: physicochemical
Method: Several other Experiments (Experiment 2, Experiment 3, Experiment 4, Experiment 5, Experiment 7, and Experiment 8) were performed to study the effect of seed loading, seed size and scale on particle size of final product.
The material as received was characterized by X-Ray Powder Diffraction (XRPD), Polarized Light Microscopy (PLM), Particle Size Distribution (PSD), Thermo-Gravimetric Analysis (TGA) and Differential Scanning Calorimetry (DSC).
In the second batch, crystals with rod morphology and a length of greater than 200 μm were observed. Two final scaled up batches were performed. A 43 gram batch was produced as small seeds and a 22 gram batch was produced using the first 10 gram batch (Crystallization 1) as large seeds to assess the impact of different size seeds on the process. Scanning electron microscopy (SEM) was used to compliment the polarized light microscope (PLM) and particle size distribution (PSD) measurements.

[8] = Salt screening: XRPD form after exposure to 95%+ relative humidity for one day; format: physicochemical; parameters: key: Am = amorphous; settings: solid dried under vacuum at 50° C., then 95%+ relative humidity for one day
Method: A stock solution of Form P material of (S)-12-fluoro-4-(2-methylpyridin-3-yl)-7a,8,13,14-tetrahydro-7H-[1,2,4]triazolo[4′,3′:1,6]pyrido[3,2-b]benzofuro[4,3-fg][1,4]oxazonine, free base, was prepared in 2,2,2-trifluoroethanol (50.8 mg/mL). Stock solutions of counter ion were prepared in EtOH.
Salt formation was carried out at room temperature in 2 mL vials. 25.4 mg of Form P free base material (500 μL stock solution) and 1.1 equivalents of counter ion were added to each vial. Solvent was allowed to evaporate at 40° C. overnight with stirring. […] These vials were kept on the hotplate to continue evaporating (temperature increased to 50° C.), while the more-dry samples were dried further under vacuum for 3 hours at 50° C. The samples still containing solvent at the end of the day were left to stir at 30° C. over the weekend to finish evaporating the solvent. These samples were dried further under vacuum for 3 hours at 50° C.
Approximately 20 volumes of solvent (0.5 mL) was added to each vial containing the dried solids. The three solvents selected were EtOH, EtOAc, and IPA:water (9:1 vol). Once solvents were added, the mixtures (or solutions) were stirred at room temperature. When slurries were formed, the solids were filtered for XRPD analysis.
XRPD analysis was done in three stages. XRPD of the wet cake was done for all collected samples. […]

[9] = format: physicochemical
Method: Crystalline, Form W material of (S)-12-fluoro-4-(2-methylpyridin-3-yl)-7a,8,13,14-tetrahydro-7H-[1,2,4]triazolo[4′,3′:1,6]pyrido[3,2-b]benzofuro[4,3-fg][1,4]oxazonine, free base, was prepared as follows. About 2.5 mg of (S)-12-fluoro-4-(2-methylpyridin-3-yl)-7a,8,13,14-tetrahydro-7H-[1,2,4]triazolo[4′,3′:1,6]pyrido[3,2-b]benzofuro[4,3-fg][1,4]oxazonine, maleic acid salt (Form 7-A), was loaded into a vial. 1 mL of water was added, and the mixture was warmed to 37° C. Additional water was added to the slurry, which thinned considerably and then appeared to start precipitating a fine white solid. This was viewed as likely disproportionation and additional water was not added. The mixture was stirred overnight, and the following day the fine solid suspended in the solution was collected and analyzed by XRPD. It was observed that the maleic acid salt had disproportionated over the slurry time.

[10] = Crystallization 1, 10 gram scale, milled Form P as seeds
[11] = Crystallization 2, 10 gram scale, crystals from Crystallization 1 as seeds
[12] = Experiment 1, initial process, 0.5 w/w % seed
[13] = Experiment 2, effect of seed loading, 0.5 w/w % milled seed
[14] = Experiment 3, effect of seed loading, 3.0 w/w % milled seed
[15] = Experiment 4, effect of seed size, 1.0 w/w % large seed
[16] = Experiment 5, effect of seed size, 1.0 w/w % milled seed
[17] = Experiment 6, wet milling study, after milling
[18] = Experiment 6, wet milling study, before milling
[19] = Experiment 7, effect of scale, 3 g scale
[20] = Experiment 8, effect of scale, 10 g scale

Compound: Cc1ncccc1-c1cc2c(n3cnnc13)NCc1c(F)ccc3c1C(CO3)CO2 (stereo in doubt) [Form E, (S)-12-fluoro-4-(2-methylpyridin-3-yl)-7a,8,13,14-tetrahydro-7H-[1,2,4]triazolo[4′,3′:1,6]pyrido[3,2-b]benzofuro[4,3-fg][1,4]oxazonine]
- DVS reversable total mass change [1]: about 10.3 wt. %

Compound: Cc1ncccc1-c1cc2c(n3cnnc13)NCc1c(F)ccc3c1C(CO3)CO2 (stereo in doubt) [Form H, (S)-12-fluoro-4-(2-methylpyridin-3-yl)-7a,8,13,14-tetrahydro-7H-[1,2,4]triazolo[4′,3′:1,6]pyrido[3,2-b]benzofuro[4,3-fg][1,4]oxazonine]
- DVS reversable total mass change [1]: about 7.6 wt. %

Compound: Cc1ncccc1-c1cc2c(n3cnnc13)NCc1c(F)ccc3c1C(CO3)CO2 (stereo in doubt) [Form P, (S)-12-fluoro-4-(2-methylpyridin-3-yl)-7a,8,13,14-tetrahydro-7H-[1,2,4]triazolo[4′,3′:1,6]pyrido[3,2-b]benzofuro[4,3-fg][1,4]oxazonine]
- crystallinity and solid form purity after wet milling [2]: maintained crystallinity and solid form purity
- DVS reversable total mass change [1]: about 0.53 wt. %
- solubility (physchem [3]): > 10 mg/mL
- purity after slurry (potential degradation) [4]: 99.9%
- solubility (physchem [5]): 56.7 mg/mL (≈ 140 mM)
- solubility (physchem [6]): 167 to 333 mg/mL (≈ 414 to 825 mM)
- Particle Size Distribution D(10) [7, 10]: 37.2 µm
- Particle Size Distribution D(50) [7, 10]: 115 µm
- Particle Size Distribution D(90) [7, 10]: 196 µm
- Particle Size Distribution D(10) [7, 11]: 23.4 µm
- Particle Size Distribution D(50) [7, 11]: 126 µm
- Particle Size Distribution D(90) [7, 11]: 634 µm
- Particle Size Distribution (PSD) D10 [7, 12]: 19 μm
- Particle Size Distribution (PSD) D50 [7, 12]: 100 μm
- Particle Size Distribution (PSD) D90 [7, 12]: 213 μm
- Particle Size Distribution (PSD) D10 [7, 13]: 17 μm
- Particle Size Distribution (PSD) D50 [7, 13]: 93 μm
- Particle Size Distribution (PSD) D90 [7, 13]: 187 μm
- Particle Size Distribution (PSD) D10 [7, 14]: 7 μm
- Particle Size Distribution (PSD) D50 [7, 14]: 31 μm
- Particle Size Distribution (PSD) D90 [7, 14]: 83 μm
- Particle Size Distribution (PSD) D10 [7, 15]: 28 μm
- Particle Size Distribution (PSD) D50 [7, 15]: 90 μm
- Particle Size Distribution (PSD) D90 [7, 15]: 171 μm
- Particle Size Distribution (PSD) D10 [7, 16]: 15 μm
- Particle Size Distribution (PSD) D50 [7, 16]: 82 μm
- Particle Size Distribution (PSD) D90 [7, 16]: 164 μm
- Particle Size Distribution (PSD) D10 [7, 17]: 11 μm
- Particle Size Distribution (PSD) D50 [7, 17]: 37 μm
- Particle Size Distribution (PSD) D90 [7, 17]: 95 μm
- Particle Size Distribution (PSD) D10 [7, 18]: 32 μm
- Particle Size Distribution (PSD) D50 [7, 18]: 199 μm
- Particle Size Distribution (PSD) D90 [7, 18]: 372 μm
- Particle Size Distribution (PSD) D10 [7, 19]: 11 μm
- Particle Size Distribution (PSD) D50 [7, 19]: 48 μm
- Particle Size Distribution (PSD) D90 [7, 19]: 113 μm
- Particle Size Distribution (PSD) D10 [7, 20]: 11 μm
- Particle Size Distribution (PSD) D50 [7, 20]: 45 μm
- Particle Size Distribution (PSD) D90 [7, 20]: 121 μm
- D10 ([7]; starting material as received): 1.99 μm
- D50 ([7]; starting material as received): 3.33 μm
- D90 ([7]; starting material as received): 5.35 μm

Compound: (S)-12-fluoro-4-(2-methylpyridin-3-yl)-7a,8,13,14-tetrahydro-7H-[1,2,4]triazolo[4′,3′:1,6]pyrido[3,2-b]benzofuro[4,3-fg][1,4]oxazonine [Benzenesulfonic acid (1)]
- XRPD Form humidity ([8]; slurry solvent EtOAc): Am
- XRPD Form humidity ([8]; slurry solvent EtOH): Am

Compound: (S)-12-fluoro-4-(2-methylpyridin-3-yl)-7a,8,13,14-tetrahydro-7H-[1,2,4]triazolo[4′,3′:1,6]pyrido[3,2-b]benzofuro[4,3-fg][1,4]oxazonine [Form 5-A]
- DVS reversable total mass change [1]: about 3.1 wt. %

Compound: (S)-12-fluoro-4-(2-methylpyridin-3-yl)-7a,8,13,14-tetrahydro-7H-[1,2,4]triazolo[4′,3′:1,6]pyrido[3,2-b]benzofuro[4,3-fg][1,4]oxazonine [Form 7-A]
- stability of salt in water slurry [9]: disproportionated

Compound: (S)-12-fluoro-4-(2-methylpyridin-3-yl)-7a,8,13,14-tetrahydro-7H-[1,2,4]triazolo[4′,3′:1,6]pyrido[3,2-b]benzofuro[4,3-fg][1,4]oxazonine [Form 8-B]
- DVS reversable total mass change [1]: about 0.82 wt. %

Compound: (S)-12-fluoro-4-(2-methylpyridin-3-yl)-7a,8,13,14-tetrahydro-7H-[1,2,4]triazolo[4′,3′:1,6]pyrido[3,2-b]benzofuro[4,3-fg][1,4]oxazonine [Form 10-A]
- DVS reversable total mass change [1]: about 1.4 wt. %

Compound: (S)-12-fluoro-4-(2-methylpyridin-3-yl)-7a,8,13,14-tetrahydro-7H-[1,2,4]triazolo[4′,3′:1,6]pyrido[3,2-b]benzofuro[4,3-fg][1,4]oxazonine [Form 13-A]
- DVS reversable total mass change [1]: about 0.97 wt. %
